In patent publication US8791265B2, “Sulfonamido derivatives of 3,4-diarylpyrazoles as protein kinase inhibitors” (Nerviano Medical Sciences S.R.L., priority 2010, dated 2014):
pIC50: −log10 of the molar value.

Columns and labels:
[1] = test system: p-MAPK (T202/Y204) in A375 human melanoma cells, having a mutated B-RAF; assay: p-MAPK (T202/Y204) ArrayScan assay; type: cell-based; conditions: A-375, 1.5 or 2 hours treatment, p-MAPK cytoplasmatic fluorescence intensity, read-out: Array Scan A375 IC50
Procedure: A375 human melanoma cells, having a mutated B-RAF, are seeded in 384-well poly-lysine coated plates (Matrix) at a density of 1000 cells/well with appropriate medium supplemented with 10% FCS and incubated for 16-24 hours. Cells are treated for 1.5 or 2 hours with increasing doses of compounds (starting dose 10 μM, dilution factor 2.5). At the end of the treatment cells are fixed with p-formaldehyde 3.7% for 15-30 min, then I/well) and permeabilized with D-PBS containing washed twice with D-PBS (80 0.1% Triton X-100 and 1% BSA (Sigma-Aldrich) for 15 minutes at room temperature (staining solution). Anti-phospho-MAPK (T202/Y204) monoclonal antibody E10 (Cell Signaling, cat. #9106) diluted 1:100 is added in staining solution and incubated for 1 hour at 37° C. After removal of the primary antibody solution, the anti-mouse Cy™2-conjugated (Green) secondary antibody (Amersham) diluted 1:500 in staining solution containing 2 μg/ml DAPI is added. The plate is incubated for 1 hour at 37° C., washed twice and then red with Cellomics' ArrayScan VTI (4 fields/well, CytoNucTrans algorithm).
The parameter “MEAN_RingAvgIntenCh2”, which measures the mean cytoplasmatic fluorescence intensity associated to p-MAPK staining, is reported as the final result.

[2] = test system: human melanoma cells A375 (with a mutated B-RAF); assay: In vitro cell proliferation assay, A375; type: cell-based; conditions: A-375, 72 hours treatment, cell number by ATP monitoring
Procedure: (§1) Exponentially growing human melanoma cells A375 (with a mutated B-RAF) and human melanoma cells Mewo (with wild-type B-Raf) were seeded and incubated at 37° C. in a humidified 5% CO2 atmosphere. After 24 hours, scalar doses of the compound were added to the medium and cells oncubated for 72 hours. At the end of treatment, cells were washed and counted. Cell number was determined by a cellular adenosine triphosphate monitoring system. Cell proliferation was compared to control cells and the concentration inhibiting cell growth by 50% was calculated.

[3] = test system: human melanoma cells Mewo (with wild-type B-Raf); assay: In vitro cell proliferation assay, Mewo; type: cell-based; conditions: 72 hours treatment, cell number by ATP monitoring
Procedure: as §1

[4] = Stability study in PBS buffer pH 7.4; type: physicochemical; conditions: PBS pH 7.4, 37° C., 0-120 minutes, HPLC/MS; FIG. 1
Procedure: (§2) A compound of formula (I) of the present invention, dissolved in DMSO, was incubated at 37° C. in PBS at pH 7.4 or fresh mouse plasma. Aliquots were withdrawn and analysed by HPLC/MS at 0, 5, 15, 60 and 120 minutes. The UV signal in the range 210-400 nm was used for the quantification of the chromatographic peaks either of the compound of formula (I) and the parent compound of formula (II).

[5] = In vitro conversion of prodrug into parent compound in fresh mouse plasma; type: in vitro ADME; conditions: 37° C., 0-120 minutes, HPLC/MS, FIG. 2
Procedure: as §2

Structure (SMILES) | pIC50 [1] | pIC50 [2] | pIC50 [3] | stability in PBS buffer [4] | conversion into the parent compound in fresh mouse plasma [5]
CCn1cc(-c2ccncc2)c(-c2c(F)ccc(N(C(=O)OC)S(=O)(=O)c3cc(F)ccc3F)c2F)n1 [compound 1, methyl [(2,5-difluorophenyl)sulfonyl]{3-[1-ethyl-4-(pyridin-4-yl)-1H-pyrazol-3-yl]-2,4-difluorophenyl}carbamate] | 7.70 | 7.70 | < 5.00 |  | 
CCCOC(=O)N(c1ccc(F)c(-c2nn(CC)cc2-c2ccncc2)c1F)S(=O)(=O)c1cc(F)ccc1F [compound 3, propyl [(2,5-difluorophenyl)sulfonyl]{3-[1-ethyl-4-(pyridin-4-yl)-1H-pyrazol-3-yl]-2,4-difluorophenyl}carbamate] | 7.70 | 7.70 | < 5.00 |  | 
CCOC(=O)N(c1ccc(F)c(-c2nn(C)cc2-c2ccncc2)c1F)S(=O)(=O)c1cc(F)ccc1F [compound 12, ethyl [(2,5-difluorophenyl)sulfonyl]{3-[1-methyl-4-(pyridin-4-yl)-1H-pyrazol-3-yl]-2,4-difluorophenyl}carbamate] | 7.70 | 6.77 | < 5.00 |  | 
CCn1cc(-c2ccncc2)c(-c2c(F)ccc(N(C(=O)OC(C)C)S(=O)(=O)c3cc(F)ccc3F)c2F)n1 [Cmpd. No. 4, propan-2-yl [(2,5-difluorophenyl)sulfonyl]{3-[1-ethyl-4-(pyridin-4-yl)-1H-pyrazol-3-yl]-2,4-difluorophenyl}carbamate] | 7.70 | 7.70 | < 5.00 |  | 
CCOC(=O)N(c1ccc(F)c(-c2nn(CC)cc2-c2ccncc2)c1F)S(=O)(=O)c1cc(F)ccc1F [Cmpd. No. 2, ethyl [(2,5-difluorophenyl)sulfonyl]{3-[1-ethyl-4-(pyridin-4-yl)-1H-pyrazol-3-yl]-2,4-difluorophenyl}carbamate] | 6.85 | 6.43 | < 5.00 | stable in buffer | rapidly converted into the corresponding parent compound
CCn1cc(-c2ccncc2)c(-c2c(F)ccc(N(C(C)=O)S(=O)(=O)c3cc(F)ccc3F)c2F)n1 [compound 5, N-[(2,5-difluorophenyl)sulfonyl]-N-{3-[1-ethyl-4-(pyridin-4-yl)-1H-pyrazol-3-yl]-2,4-difluorophenyl}acetamide] | 7.70 | 7.70 | < 5.00 |  | 
CCn1cc(-c2ccnc(N)c2)c(-c2c(F)ccc(N(C(C)=O)S(=O)(=O)c3cc(F)ccc3F)c2F)n1 [Cmpd. No. 45, N-{3-[4-(2-aminopyridin-4-yl)-1-ethyl-1H-pyrazol-3-yl]-2,4-difluorophenyl}-N-[(2,5-difluorophenyl)sulfonyl]acetamide] | 7.30 | 7.05 | < 5.00 |  | 
CCn1cc(-c2ccncc2)c(-c2c(F)ccc(N(COC(C)=O)S(=O)(=O)c3cc(F)ccc3F)c2F)n1 [compound 7, ([(2,5-difluorophenyl)sulfonyl]{3-[1-ethyl-4-(pyridin-4-yl)-1H-pyrazol-3-yl]-2,4-difluorophenyl}amino)methyl acetate] | 7.70 | 7.70 | < 5.00 |  | 
